Legend:
[1] = target: T1, Histone deacetylase 7 (Homo sapiens, UniProt Q8WUI4); assay: Inhibition of HDAC7 (unknown origin) using 6-carboxyfluorescein peptide as substrate preincubated with compound for 6 hrs followed by substrate addition by electrophoretic mobility shift assay
T1 sequence (Q8WUI4 whole entry): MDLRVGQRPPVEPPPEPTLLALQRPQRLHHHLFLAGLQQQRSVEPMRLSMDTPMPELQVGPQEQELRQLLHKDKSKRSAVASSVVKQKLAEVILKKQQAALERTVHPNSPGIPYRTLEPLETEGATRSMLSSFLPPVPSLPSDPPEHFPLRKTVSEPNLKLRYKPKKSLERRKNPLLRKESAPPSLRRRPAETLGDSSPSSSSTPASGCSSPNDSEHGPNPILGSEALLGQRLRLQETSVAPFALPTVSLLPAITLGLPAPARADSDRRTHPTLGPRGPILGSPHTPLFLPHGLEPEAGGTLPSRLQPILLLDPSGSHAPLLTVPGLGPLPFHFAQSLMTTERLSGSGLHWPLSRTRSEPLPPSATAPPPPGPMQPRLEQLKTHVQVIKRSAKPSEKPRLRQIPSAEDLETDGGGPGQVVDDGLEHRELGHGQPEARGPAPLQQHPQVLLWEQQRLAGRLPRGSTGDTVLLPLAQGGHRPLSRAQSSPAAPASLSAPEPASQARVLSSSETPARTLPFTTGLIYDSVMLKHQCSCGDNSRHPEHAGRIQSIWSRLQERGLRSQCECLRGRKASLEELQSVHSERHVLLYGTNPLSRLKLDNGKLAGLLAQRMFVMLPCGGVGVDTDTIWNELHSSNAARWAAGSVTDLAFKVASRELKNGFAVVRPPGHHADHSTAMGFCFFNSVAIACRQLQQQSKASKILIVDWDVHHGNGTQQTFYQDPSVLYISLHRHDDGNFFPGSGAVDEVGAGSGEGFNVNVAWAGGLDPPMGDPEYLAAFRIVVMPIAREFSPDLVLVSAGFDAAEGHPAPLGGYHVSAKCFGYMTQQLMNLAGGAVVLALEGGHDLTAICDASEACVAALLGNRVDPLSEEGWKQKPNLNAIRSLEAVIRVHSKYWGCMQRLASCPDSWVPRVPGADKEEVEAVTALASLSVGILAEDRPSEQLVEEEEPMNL

[2] = system: MV4-11; assay: Induction of apoptosis in human MV4-11 cells assessed as late apoptotic cells at 1 uM measured after 6 hrs by annexin V-FITC/PI staining based FACS assay (reference value: 16.21%); format: functional
[3] = Glutathione reactivity assessed as compound consumption at 500 nM measured after 1 to 3 hrs by LC-MS/MS analysis; format: ADME; details: glutathione solution, time 1-3 hrs, read-out: Activity
[4] = target: T2, Polyamine deacetylase HDAC10 (Homo sapiens, UniProt Q969S8); assay: Inhibition of HDAC10 (unknown origin) using 6-carboxyfluorescein peptide as substrate preincubated with compound for 6 hrs followed by substrate addition by electrophoretic mobility shift assay
T2 sequence (Q969S8 whole entry): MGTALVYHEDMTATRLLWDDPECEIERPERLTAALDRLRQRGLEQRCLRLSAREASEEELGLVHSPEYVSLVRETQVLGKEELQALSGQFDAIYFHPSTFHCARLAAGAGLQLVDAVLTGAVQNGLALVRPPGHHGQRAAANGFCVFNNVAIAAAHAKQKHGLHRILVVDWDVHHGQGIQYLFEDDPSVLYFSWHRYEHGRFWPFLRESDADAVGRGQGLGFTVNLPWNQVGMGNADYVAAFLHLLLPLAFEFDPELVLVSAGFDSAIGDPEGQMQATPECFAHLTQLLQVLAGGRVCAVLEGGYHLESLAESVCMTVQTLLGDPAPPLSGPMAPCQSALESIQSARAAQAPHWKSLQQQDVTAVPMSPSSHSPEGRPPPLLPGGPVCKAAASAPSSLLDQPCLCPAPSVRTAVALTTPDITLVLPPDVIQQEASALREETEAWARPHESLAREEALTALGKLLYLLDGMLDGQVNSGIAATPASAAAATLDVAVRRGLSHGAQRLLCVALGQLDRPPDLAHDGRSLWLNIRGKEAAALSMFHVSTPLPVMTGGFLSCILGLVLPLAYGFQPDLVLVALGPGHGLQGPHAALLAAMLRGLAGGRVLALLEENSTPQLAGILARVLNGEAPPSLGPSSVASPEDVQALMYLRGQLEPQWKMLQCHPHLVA

[5] = target: Histone deacetylase 1 (Homo sapiens, UniProt Q13547); assay: Inhibition of HDAC1 (unknown origin) using 6-carboxyfluorescein peptide as substrate preincubated with compound for 6 hrs followed by substrate addition by electrophoretic mobility shift assay
[6] = target: Histone deacetylase 9 (Homo sapiens, UniProt Q9UKV0); assay: Inhibition of HDAC9 (unknown origin) using 6-carboxyfluorescein peptide as substrate preincubated with compound for 6 hrs followed by substrate addition by electrophoretic mobility shift assay
[7] = target: Histone deacetylase 2 (Homo sapiens, UniProt Q92769); assay: Inhibition of HDAC2 (unknown origin) using 6-carboxyfluorescein peptide as substrate preincubated with compound for 2 hrs followed by substrate addition by electrophoretic mobility shift assay
Sequence of Histone deacetylase 2 (Q92769 whole entry): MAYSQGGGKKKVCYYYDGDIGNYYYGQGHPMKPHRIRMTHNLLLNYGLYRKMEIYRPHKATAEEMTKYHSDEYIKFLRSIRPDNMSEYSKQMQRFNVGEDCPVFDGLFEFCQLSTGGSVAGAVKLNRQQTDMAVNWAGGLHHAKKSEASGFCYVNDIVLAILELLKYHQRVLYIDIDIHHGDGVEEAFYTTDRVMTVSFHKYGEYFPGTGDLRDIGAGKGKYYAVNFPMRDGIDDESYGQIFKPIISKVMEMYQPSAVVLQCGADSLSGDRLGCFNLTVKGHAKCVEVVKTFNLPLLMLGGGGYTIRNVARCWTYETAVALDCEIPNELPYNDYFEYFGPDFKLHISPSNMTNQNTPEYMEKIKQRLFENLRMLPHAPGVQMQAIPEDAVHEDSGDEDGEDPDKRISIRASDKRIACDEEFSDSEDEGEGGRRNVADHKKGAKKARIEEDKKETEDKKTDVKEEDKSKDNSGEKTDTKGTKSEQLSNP

Sequence of Histone deacetylase 1 (Q13547 whole entry): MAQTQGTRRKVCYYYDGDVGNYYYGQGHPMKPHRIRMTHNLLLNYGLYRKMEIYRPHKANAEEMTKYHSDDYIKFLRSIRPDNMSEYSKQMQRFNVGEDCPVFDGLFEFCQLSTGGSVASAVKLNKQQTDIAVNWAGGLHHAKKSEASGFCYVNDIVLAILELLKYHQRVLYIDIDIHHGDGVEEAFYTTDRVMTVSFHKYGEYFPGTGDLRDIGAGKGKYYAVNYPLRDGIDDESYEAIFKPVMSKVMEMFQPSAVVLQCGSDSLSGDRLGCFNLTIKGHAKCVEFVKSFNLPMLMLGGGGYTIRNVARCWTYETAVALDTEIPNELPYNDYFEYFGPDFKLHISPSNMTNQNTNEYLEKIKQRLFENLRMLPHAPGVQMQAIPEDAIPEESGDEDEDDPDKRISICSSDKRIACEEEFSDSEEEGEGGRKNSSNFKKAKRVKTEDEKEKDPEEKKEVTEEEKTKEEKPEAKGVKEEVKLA
Sequence of Histone deacetylase 9 (Q9UKV0 whole entry): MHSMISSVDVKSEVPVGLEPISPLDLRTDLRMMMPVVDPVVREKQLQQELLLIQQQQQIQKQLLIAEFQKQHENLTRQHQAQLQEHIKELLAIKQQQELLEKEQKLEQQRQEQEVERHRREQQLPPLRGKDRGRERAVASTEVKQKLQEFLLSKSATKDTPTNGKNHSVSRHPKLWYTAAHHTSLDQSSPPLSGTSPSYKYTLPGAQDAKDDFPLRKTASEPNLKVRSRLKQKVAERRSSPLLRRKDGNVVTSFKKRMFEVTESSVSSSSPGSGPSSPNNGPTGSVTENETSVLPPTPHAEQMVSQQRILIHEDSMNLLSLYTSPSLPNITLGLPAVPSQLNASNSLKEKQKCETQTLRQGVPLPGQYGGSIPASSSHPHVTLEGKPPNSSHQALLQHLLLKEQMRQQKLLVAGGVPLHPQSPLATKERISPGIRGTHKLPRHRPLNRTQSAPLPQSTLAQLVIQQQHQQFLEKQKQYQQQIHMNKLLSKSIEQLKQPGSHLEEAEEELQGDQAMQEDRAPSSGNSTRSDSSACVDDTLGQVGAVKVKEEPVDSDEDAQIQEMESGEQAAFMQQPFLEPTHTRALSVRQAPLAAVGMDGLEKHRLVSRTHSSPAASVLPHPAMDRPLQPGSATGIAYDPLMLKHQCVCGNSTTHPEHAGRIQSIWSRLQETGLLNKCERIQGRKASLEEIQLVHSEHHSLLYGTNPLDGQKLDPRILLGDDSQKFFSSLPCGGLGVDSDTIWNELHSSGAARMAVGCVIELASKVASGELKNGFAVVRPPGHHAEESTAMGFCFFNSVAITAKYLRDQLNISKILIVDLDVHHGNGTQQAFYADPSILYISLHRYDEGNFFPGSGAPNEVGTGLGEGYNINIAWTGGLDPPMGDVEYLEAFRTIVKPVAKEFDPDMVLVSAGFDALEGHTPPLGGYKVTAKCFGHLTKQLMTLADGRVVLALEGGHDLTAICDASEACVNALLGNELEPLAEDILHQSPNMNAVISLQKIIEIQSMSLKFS

Nc1ccccc1NC(=O)c1ccc(CNC(=O)OC2CCN(S(=O)(=O)c3c(F)c(F)c(F)c(F)c3F)CC2)cc1
IC50 [1]: > 10 µM
Activity [2]: 48.31%
degraded at 0.5 µM [3]: > 50%
IC50 [4]: > 10 µM
IC50 [5]: 109 nM
IC50 [6]: > 10 µM
IC50 [7]: 327 nM

Source: ChEMBL document CHEMBL5375983, “Discovery of YSR734: A Covalent HDAC Inhibitor with Cellular Activity in Acute Myeloid Leukemia and Duchenne Muscular Dystrophy” (J Med Chem, 2023)
